In patent publication US10301298B2, “Methods, compounds, and compositions for the treatment of angiotensin-related diseases” (University of Southern California, priority 2013, dated 2019):
Where two headings read alike, the source gives them in different places.

Assays:
MDA MB 231 = assay: MTT cellular viability of MDA MB 231 breast cancer cell line; format: cell-based; conditions: for IC50: Homo sapiens, MDA-MB-231, MTT
Description: Compound 7 was evaluated for its ability to modulate cancer proliferation using MDA MB 231 breast cancer cell line. MDA MB 231 was treated with increasing concentration of Compound 7 ranged from 1×10^−12 to 1×10^−3 M, where the cells were incubated for 48 hours. After the incubation, cellular viability was evaluated using 3-(4,5-dimethylthiazol-2-yl)-2,5-diphenyltetrazolium bromide or MTT, where viable cells are able to reduce MTT to formazan and form an insoluble crystal. The solubilized crystal can be spectrometrically determine, where cellular viability is compared to cells treated with vehicle. The cellular viability of MDA MB 231 is summarized (FIG. 9). […] Rather at 1×10^−12 M ([…]) of Compound 7, the cellular proliferation was only 70% of vehicle treated.

Mas = target: T1, Mas (Homo sapiens, UniProt P04201); assay: NO production in CHO cells stably transfected with Human Mas1; format: cell-based; conditions: for NO production with co-administration of A779: with A779, selective Mas antagonist, 1×10^−7 M
T1 construct: expressed in transfected cells
T1 sequence (P04201 1-325): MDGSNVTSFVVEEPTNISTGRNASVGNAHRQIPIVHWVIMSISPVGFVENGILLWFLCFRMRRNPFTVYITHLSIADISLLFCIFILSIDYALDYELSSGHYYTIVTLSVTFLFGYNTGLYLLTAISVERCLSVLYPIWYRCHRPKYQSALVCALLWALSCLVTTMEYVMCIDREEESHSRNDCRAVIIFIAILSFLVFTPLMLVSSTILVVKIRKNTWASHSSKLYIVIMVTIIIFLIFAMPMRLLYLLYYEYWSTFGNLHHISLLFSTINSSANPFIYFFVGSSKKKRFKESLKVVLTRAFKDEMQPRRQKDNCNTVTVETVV
Description: Transfected cells that express Mas were used to identify and evaluate provided compounds as Mas agonists, by promoting NO production as readouts. CHO cells stably transfected with pTEJ-8 vector containing recombinant Human Mas1 clone were grown to confluency. Cells were washed three times for 30/5/5 minutes with prewarmed (37° C.) Tyrodes Salts (supplemented with 1 g/L NaHCO3, and 1.9 g/L d-Glucose). Cells were incubated for a short time in 700 μL of supplemented Tyrodes salts containing 10 μM PTIO, 100 μM DAN, and 1 mM L-arginine. When using antagonist for competition assays, cells were exposed to the inhibitor at 1×10^−7 M for 15 minutes, before additional drugs are added.
Chemicals (10^−8 to 10^−6 M or the maximum concentration found not to cause cytotoxicity) to be screened were added to the cell medium and the plates were agitated for 1 minute before being placed into the incubator for 2 hours. After 2 hours, cellular supernatants were transferred to opaque 96 well plates, and the fluorescence intensity was recorded at an ex/em of 380/425.

AT2R = target: T2, AT2R (Homo sapiens, UniProt P50052); assay: AT2R displacement assay with radiolabeled Ang II; format: binding; conditions: displacement of radiolabeled Ang II or analogs; read-out: EC50 displacing Ang II in the AT2R displacement assay
T2 sequence (P50052 1-363): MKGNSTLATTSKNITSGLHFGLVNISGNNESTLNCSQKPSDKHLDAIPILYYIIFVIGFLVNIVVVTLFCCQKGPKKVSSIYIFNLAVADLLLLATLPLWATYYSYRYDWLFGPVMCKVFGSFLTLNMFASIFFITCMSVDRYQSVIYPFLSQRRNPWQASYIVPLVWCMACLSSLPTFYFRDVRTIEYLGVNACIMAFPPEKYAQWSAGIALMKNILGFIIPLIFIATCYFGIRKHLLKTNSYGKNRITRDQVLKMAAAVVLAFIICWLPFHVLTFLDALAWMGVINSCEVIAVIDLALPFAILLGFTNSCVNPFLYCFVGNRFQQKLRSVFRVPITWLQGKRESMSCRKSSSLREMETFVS
Description: Compound 7 was evaluated in vitro for its ability to compete with ratholabeled Ang II or analogs in a displacement assay for AT1R and AT2R receptors.

db/db mice = assay: Liver lipid levels, Oil Red O staining, in db/db mice; format: in vivo; conditions: 500 mcg/kg/day, 14 days
Description: The lipid levels found in the liver was evaluated in db/db animals treated for 14 days with vehicle, 500 mcg/kg/day Ang(1-7) or Compound 7. Livers isolated from mice were harvested. Liver tissue sections were washed with cold saline and frozen in the presence of optimum cutting temperature (OCT) formulation. Tissues were then cut into 10-μm sections using a cryostat. Oil Red O staining and H&E staining were performed according to published procedures (Yang et al., 2013). The tissues were observed and images acquired using a light microscope (Olympus BX51) (FIG. 6).

**Q.** Which results are given for `CCCCOC(=O)NS(=O)(=O)c1ccc(OC(F)(F)F)cc1-c1ccc(Cn2ccnc2)cn1` [Compound 7, butyl (2-(5-((1H-imidazol-1-yl)methyl)pyridin-2-yl)-4-(trifluoromethoxy)phenyl)sulfonylcarbamate]?
**A.** IC50 (MDA MB 231; 48 hours, read-out: IC50 (MDA MB 231 proliferation)): 58 nM; IC50 (MDA MB 231; 48 hours, read-out: IC50 (MDA MB 231 viability, Hill-slope analysis)): 58.2 nM; effect on breast cancer cell proliferation (MDA MB 231; MDA MB 231, 1×10^−12 to 1×10^−3 M): did not increase breast cancer cell proliferation; cellular proliferation, % of vehicle treated (MDA MB 231; MDA MB 231, at 1×10^−12 M, 48 hours): 70%; ability to enhance NO production (fluorescence) (Mas; Mas-transfected CHO cells): concentration dependent increase in NO; EC50 (Mas; Mas-transfected CHO cells, 2 hours): 10 nM; NO production with co-administration of A779 (Mas): back to baseline; NO production with co-administration of A779 (Mas; listed as compound 7): back to baseline fluorescence; EC50 (AT2R): > 10000 nM; Oil Red staining of liver (lipid deposition) compared with db/db controls (db/db mice): reduced Oil Red staining
